Results from US20260256799A1, “INHIBITORS FOR TREATING SOLID TUMOURS” (UNIVERSITY OF SOUTHAMPTON, priority 2023, published 2026).

Legend:
MLF = assay: TGF-β1-induced myofibroblast differentiation of mouse lung fibroblasts; type: cell-based
Method: Human NSCLC cell line H441, HNSCC SCC25, murine cancer cell line TC-1 (lung), MC38 (colon) and human fetal foreskin fibroblasts HFFF2 were purchased from European Collection of Cell Cultures (Public Health England) or ATCC; HNSCC 5PT [32] were provided by l. Mackenzie (Queen Mary University of London, UK). HEK-293T cells and IMR90 lung fibroblasts were provided by Jesus Gil (Imperial College, London, UK). SCC25 were grown in Ham's F12:DMEM (1:1 ratio) medium with 10% FBS (Calbiochem) and 292 μg/ml L-Glutamine. 5PT were cultured in keratinocyte growth medium. HEK-293T, H441, MC38, HFFF2, IMR90 and primary fibroblasts were grown in DMEM supplemented with 10% FBS and 292 μg/ml L-Glutamine. Primary fibroblasts were isolated as previously used at early passage (p1-10). C57BL/6 murine normal lung and colon fibroblasts (MLF and MCF respectively) were grown at 3% oxygen. TC-1 were cultured in RPMI supplemented with 10% FBS and 292 μg/ml L-Glutamine. All cell cultures were routinely tested for mycoplasma contamination. All cells were cultured using standard cell culture plates/flasks (Corning). HFFF2 or IMR90 cells were transfected with 25 μM On-Target pool siRNA (Thermo Scientific/Dharmacon) using Oligofectamine reagent (Life Technologies) as described. Stable knockdown was performed using retro/lentiviral mediated transduction of shRNA plasmids, as previously described followed by cell selection using 1 μg/ml puromycin for 5-7 days. NOX4-inducible HEK-293 cells (kindly provided by Vincent Jaquet) were treated with 1 μg/ml doxycycline. […]
5×10^3 HFFF2 were plated on permanox chamber slides (Thermo Scientific) and treated as described in the figure legends. […] Images were taken using an Olympus IX81 fluorescence microscope and Xcellence program. DNA Damage foci were quantified from at least 8 non-overlapping FoV with ~300 cells in total per condition. […] SMA and Collagen 1A1 quantification was performed using Fiji. […]

TC-1 cells = assay: Isograft model TC-1 alone (control, myoCAF-low tumours); type: in vivo, C57/BL6 female mice; conditions: AZD0156 20 mg/Kg oral gavage daily
Method: All mouse experiments were performed according to national and international guidelines and were approved by the authors' institutional review board and the UK Home Office. Xenograft model: 6.7×10^5 PT cells±2×10^6 HFFF2 cells were resuspended in 100 μl PBS and injected s.c. in the flank of partially immunocompromised, male RAG1−/−C57BL/6 mice (3-5 months old). Isograft models: 0.5×10^5 TC-1 cells±3×10^5 TGF-β1-treated murine lung fibroblasts (myoMLFs) or 1×10^5 MC38 cells±5×10^5 TGF-β1-treated murine colon fibroblasts (myoMCFs) were resuspended in 100 μl PBS and injected s.c. in the flank of C57/BL6 female mice (6-8 weeks old). 5-8 animals for both models were used per group. Tumour size was measured over time using an electronic caliper and calculated using the formula 4π/3×r3 [radius (r) calculated from the average diameter, measured as the tumour width and length]. […]
The area under the curve (AUC) for each individual tumour within a treatment group for multiple experiments was analyzed by ordinary Two-way Anova using as two independent variables ‘the experiments’ (factor 1) and ‘the treatments’ (factor 2), and as dependent variable ‘the AUC’ of each mouse; then, the inventors looked at just factor 2. […]

[1] = AZD0156 0.5 μM + TGF-β1 for a week, Q-RT-PCR

Compound: CN(C)CCCOc1ccc(-c2ccc3ncc4c(c3c2)n(C2CCOCC2)c(=O)n4C)cn1 [AZD0156]
- myofibroblast differentiation in vitro (MLF; AZD0156 0.5 μM + TGF-β1, 72 hours (Western) or 7 days (Collagen1, Fibronectin)): suppressed
- effect on iCAF genes (MLF; [1]): gene-specific and generally non-significant
- myoCAF genes expression (MLF; [1]): significantly down-regulated
- growth of control (myoCAF-low) tumours (TC-1 cells): minimal effect
